For series [1] the following is noted: cited from earlier work.
Series [2] is described as follows: Solubility of salicylic acid in organic compounds liquid at room temperature. In kind it is physicochemical. The note with it: dissolved at 60° C., cooled to room temperature, left 2 hours. On the procedure:
In this example, the solubility of salicylic acid in different liquid materials was compared with mineral oil.
Preparation of Highly Concentrated Salicylic Acid Solutions
Salicylic acid was mixed with various organic compounds, liquid at room temperature, and heated to 60° C. The solution was stirred until all the salicylic acid was dissolved and then cooled to room temperature with stirring. The solution was left undisturbed for 2 hours and observed for crystallization.
The results are expressed by weight of the acid in the dissolving organic compound liquid at room temperature.

Turning to `O=C(O)c1ccccc1O` [Salicylic acid, 2-hydroxybenzoic acid], the “volume of alcohol in which 1 g dissolves” value in series [1] (ethanol, 1 g dissolves in the stated volume) was 2.7 mL. In addition, the “volume of ether in which 1 g dissolves” value in series [1] (ether, 1 g in the stated volume) was 3 mL. In addition, the “volume of water in which 1 g dissolves” value in series [1] (water, 1 g in the stated volume) is 460 mL. Further, the “solubility of salicylic acid” value in series [2] (in C12-C15 alkyl benzoate) is on record as 4.8% w/w; in series [2] (in glyceryl isostearate), 8.25% w/w; in series [2] (in isostearic acid) it was 6.5% w/w; in series [2] (in isostearyl alcohol), 9.9% w/w; in series [2] (in oleic acid, observed for crystallization, by weight of acid in the solvent), 5.6% w/w; in series [2] (in propylene glycol isostearate), 9.9% w/w.

The record behind these values is US20070243154A1, “Solubilization of acid ingredients” (L'OREAL, priority 2006, published 2007).
